Results from ChEMBL document CHEMBL1150526, “Isolation and X-ray crystal structure of racemic Xestospongin D from the Singapore marine sponge Niphates sp1” (1996).
≈ marks a conversion by molar mass, not a printed value.

Legend:
Assay type in all cases: functional
Leukemia cell = test: Compound was evaluated for its activity to inhibit growth of human leukemia cancer cell line
Micrococcus luteus = test: Compound was evaluated for the inhibition of growth of Micrococcus luteus; (12.5-25 ug/disk)
P388 = test: Compound was evaluated for its activity to inhibit growth of murine P388 lymphocytic leukemia; settings: Mus musculus, read-out: ED50 (the source's name)
Breast cancer cell line = test: Compound was evaluated for its activity to inhibit growth of human breast cancer cell line

Question: For O[C@@]12CCCCCC[C@H]3CCN4CCC[C@H](CCCCCC[C@H]5CCN(CCC1)[C@@H]2O5)[C@H]4O3 [XESTOSPONGIN D], which GI50 (Leukemia cell) is on record?
Answer: The GI50 was 3.62 µM.

Question: What about the MIC (Micrococcus luteus) of the same compound?
Answer: Its MIC is 25 ug disk-1.

Question: And the EC50 (P388)?
Answer: Its EC50 is 1.7 µg/mL (≈ 3.67 µM).

Question: What about the GI50 (Breast cancer cell line) of the same compound?
Answer: The GI50 was 4.53 µM.
